Laboratory results taken from patent publication US12441768B2, “Compositions and methods for treating endometriosis” (EndoMet Biosciences, Inc., priority 2018, dated 2025).
pEC50, pKd: −log10 of the molar value. Where a SMILES comes first, the peptide text is derived from it.

Tests used:
β-catenin = target: T1, β-catenin (Homo sapiens, UniProt P35222); experiment: KD50 measurement using competitive fluorescence polarization (FP) with labelled TCF4; format: binding; conditions: fluorescence polarization, β-catenin; for pKd: read-out: β-Cat FP KD
T1 sequence (P35222 1-781): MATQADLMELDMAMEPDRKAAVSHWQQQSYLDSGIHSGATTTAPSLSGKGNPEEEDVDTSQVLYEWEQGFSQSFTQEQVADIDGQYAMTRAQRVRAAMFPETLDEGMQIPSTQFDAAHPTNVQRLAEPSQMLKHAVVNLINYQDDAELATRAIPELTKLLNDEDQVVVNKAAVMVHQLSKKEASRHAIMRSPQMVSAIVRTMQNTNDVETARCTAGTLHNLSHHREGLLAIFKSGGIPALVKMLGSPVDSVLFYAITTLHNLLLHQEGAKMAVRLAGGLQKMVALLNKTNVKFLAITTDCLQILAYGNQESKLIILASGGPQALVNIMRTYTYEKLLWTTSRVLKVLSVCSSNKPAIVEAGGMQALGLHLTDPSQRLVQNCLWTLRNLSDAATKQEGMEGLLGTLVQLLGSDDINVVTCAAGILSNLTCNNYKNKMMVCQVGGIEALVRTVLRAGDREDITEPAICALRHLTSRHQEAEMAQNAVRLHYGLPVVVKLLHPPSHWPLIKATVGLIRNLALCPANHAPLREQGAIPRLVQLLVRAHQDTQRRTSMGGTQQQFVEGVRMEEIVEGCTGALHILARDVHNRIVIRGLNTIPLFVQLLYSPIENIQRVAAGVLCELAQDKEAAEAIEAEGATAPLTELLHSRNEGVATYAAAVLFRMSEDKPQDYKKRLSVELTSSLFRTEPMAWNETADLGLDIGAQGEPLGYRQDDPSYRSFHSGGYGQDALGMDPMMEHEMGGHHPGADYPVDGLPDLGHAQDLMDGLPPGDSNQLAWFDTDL
Outline: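 Each compound competes against labelled TCF4 (5 nM) for 100 nM β-catenin at room temperature, tested over 10 nM to 30 uM. Signal: polarization at 470/520 nm excitation/emission. Three repeat experiments were performed.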

[1] = % Viability non-Wnt responsive cells
[2] = target: Wnt-responsive promoter (TCF/LEF); experiment: Wnt-dependent luciferase reporter assay; format: cell-based, murine
Outline: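 Murine 3T3 fibroblasts carrying a TCF/LEF-driven luciferase reporter, stimulated with Wnt3a in the presence of increasing peptide concentrations or vehicle. Luminescence inhibition gave EC50 values in uM.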

SMILES	β-Cat FP Hill slope (β-catenin)	pKd (β-catenin)	pEC50 [2]	viability [1] [%]
CC[C@H](C)[C@H](NC(=O)[C@H](CC(C)C)NC(=O)[C@H](CC(C)C)NC(=O)[C@H](Cc1c[nH]c2ccccc12)NC(=O)[C@H](CCSC)NC(=O)[C@H](CCCNC(=N)N)NC(=O)[C@H](CO)NC(=O)[C@@H](N)CCSC)C(=O)N[C@@H](CO)C(=O)N[C@@H](Cc1ccccc1)C(=O)N[C@@H](Cc1c[nH]c2ccccc12)C(=O)NCC(=O)O [compound 60] (H-MSRMWLLISFWG-OH)	–	< 4.52	4.82 to 5.12	101
CC[C@H](C)[C@H](NC(=O)[C@H](Cc1c[nH]c2ccccc12)NC(=O)[C@@H](N)CCSC)C(=O)NC(C)(CC(C)C)C(=O)N[C@H](C(=O)N[C@@H](CS)C(=O)N[C@@H](Cc1ccccc1)C(=O)N[C@@H](Cc1c[nH]c2ccccc12)C(=O)NCC(=O)O)[C@@H](C)CC (some centres unmarked) [compound 130] (HELM PEPTIDE1{M.W.I.[CC(C)CC(C)(N[*:1])C(=O)[*:2]].I.C.F.W.G}$$$$V2.0)	0.72	5.00 to 6.00	4.52 to 4.65	98.3
CC[C@H](C)[C@H](NC(=O)[C@H](CC(C)C)NC(=O)[C@@H](NC(=O)C(C)(Cc1c[nH]c2ccccc12)NC(=O)[C@@H](N)CCSC)[C@@H](C)CC)C(=O)N[C@@H](CO)C(=O)N[C@@H](Cc1ccccc1)C(=O)N[C@@H](Cc1c[nH]c2ccccc12)C(=O)NCC(=O)O (some centres unmarked) [compound 134] (HELM PEPTIDE1{M.[CC(Cc1c[nH]c2ccccc12)(N[*:1])C(=O)[*:2]].I.L.I.S.F.W.G}$$$$V2.0)	1.47	5.00 to 6.00	< 4.52	97.9
CC[C@H](C)[C@@H]1NC(=O)[C@H](CC(C)C)NC(=O)[C@H](Cc2ccccc2)NC(=O)[C@H](Cc2c[nH]c3ccccc23)NC(=O)[C@@H](NC(C)=O)CCCCNC(=O)CC[C@@H](C(=O)O)NC(=O)[C@H](Cc2c[nH]c3ccccc23)NC(=O)[C@H](Cc2ccccc2)NC(=O)[C@H](C)NC1=O [compound 200] (HELM PEPTIDE1{[ac].K.W.F.L.I.A.F.W.E}$PEPTIDE1,PEPTIDE1,2:R3-10:R3$$$V2.0)	0.7	5.00 to 6.00	> 5.12	81.4
CC[C@H](C)[C@H](NC(=O)[C@H](CC(C)C)NC(=O)[C@@H](NC(=O)[C@H](Cc1c[nH]c2ccccc12)NC(=O)[C@H](CCSC)NC(=O)[C@@H](N)CCCCN)[C@@H](C)CC)C(=O)N[C@@H](CS)C(=O)N[C@@H](Cc1ccccc1)C(=O)N[C@@H](Cc1c[nH]c2ccccc12)C(=O)NCC(=O)O [compound 113] (H-KMWILICFWG-OH)	0.7	5.00 to 6.00	< 4.52	102
CC[C@H](C)[C@H](NC(=O)[C@H](CC(C)C)NC(=O)C(C)(Cc1ccccc1)NC(=O)[C@H](Cc1c[nH]c2ccccc12)NC(=O)[C@@H](N)CCSC)C(=O)N[C@@H](CO)C(=O)N[C@@H](Cc1ccccc1)C(=O)N[C@@H](Cc1c[nH]c2ccccc12)C(=O)NCC(=O)O (some centres unmarked) [compound 133] (HELM PEPTIDE1{M.W.[CC(Cc1ccccc1)(N[*:1])C(=O)[*:2]].L.I.S.F.W.G}$$$$V2.0)	3	> 6.40	< 4.52	95.4
CC[C@H](C)[C@H](NC(=O)[C@H](CC(C)C)NC(=O)[C@@H](NC(=O)[C@H](Cc1c[nH]c2ccccc12)NC(=O)[C@@H](N)CCCNC(=N)N)[C@@H](C)CC)C(=O)N[C@@H](CS)C(=O)N[C@@H](Cc1ccccc1)C(=O)N[C@@H](Cc1c[nH]c2ccccc12)C(=O)NCC(=O)O [compound 119] (H-RWILICFWG-OH)	0.7	5.00 to 6.00	4.82 to 5.12	143
CC[C@H](C)[C@H](NC(=O)[C@H](CC(C)C)NC(=O)[C@H](Cc1ccccc1)NC(=O)[C@H](Cc1c[nH]c2ccccc12)NC(=O)[C@@H](N)CCSC)C(=O)N[C@@H](CS)C(=O)N[C@@H](Cc1ccccc1)C(=O)N[C@@H](Cc1c[nH]c2ccccc12)C(=O)NCC(=O)O [compound 154] (H-MWFLICFWG-OH)	–	< 4.52	4.65 to 4.82	103

Further lines, with some results ahead:

β-Cat FP Hill slope (β-catenin)	pKd (β-catenin)	pEC50 [2]	SMILES	viability [1] [%]
0.7	5.00 to 6.00	4.82 to 5.12	CC[C@H](C)[C@@H]1NC(=O)[C@H](CC(C)C)NC(=O)[C@H](Cc2ccccc2)NC(=O)[C@H](Cc2c[nH]c3ccccc23)NC(=O)[C@H](CCSC)NC(=O)[C@@H](N)CCCCNC(=O)C[C@@H](C(=O)O)NC(=O)[C@H](Cc2c[nH]c3ccccc23)NC(=O)[C@H](C)NC(=O)[C@H](CS)NC1=O [compound 167] (HELM PEPTIDE1{K.M.W.F.L.I.C.A.W.D}$PEPTIDE1,PEPTIDE1,1:R3-10:R3$$$V2.0)	98.8
0.7	5.00 to 6.00	> 5.12	CC[C@H](C)[C@@H]1NC(=O)[C@H](CC(C)C)NC(=O)[C@H](Cc2ccccc2)NC(=O)[C@H](Cc2c[nH]c3ccccc23)NC(=O)[C@@H](N)CCCCNC(=O)C[C@@H](C(=O)O)NC(=O)[C@H](Cc2c[nH]c3ccccc23)NC(=O)[C@H](Cc2ccccc2)NC(=O)[C@H](CS)NC1=O [compound 172] (HELM PEPTIDE1{K.W.F.L.I.C.F.W.D}$PEPTIDE1,PEPTIDE1,1:R3-9:R3$$$V2.0)	90.8
0.7	6.00 to 6.40	> 5.12	CCCC[C@H](N)C(=O)N[C@@H](Cc1c[nH]c2ccccc12)C(=O)N[C@@H](Cc1ccccc1)C(=O)N[C@@H](CC(C)C)C(=O)N[C@H](C(=O)N[C@@H](CS)C(=O)N[C@@H](Cc1ccccc1)C(=O)N[C@@H](Cc1c[nH]c2ccccc12)C(=O)NCC(=O)O)[C@@H](C)CC [compound 164] (HELM PEPTIDE1{[Nle].W.F.L.I.C.F.W.G}$$$$V2.0)	100
1.47	> 6.40	> 5.12	CC[C@H](C)[C@H](NC(=O)[C@H](CC(C)C)NC(=O)[C@@H](NC(=O)[C@H](Cc1c[nH]c2ccccc12)NC(=O)[C@H](CCSC)NC(C)=O)C1CCCCC1)C(=O)N[C@@H](CO)C(=O)N[C@@H](Cc1ccccc1)C(=O)N[C@@H](Cc1c[nH]c2ccccc12)C(=O)NCC(=O)O [compound 217] (HELM PEPTIDE1{[ac].M.W.[O=C([C@@H](N[*:1])C1CCCCC1)[*:2]].L.I.S.F.W.G}$$$$V2.0)	87.9
1.56	5.00 to 6.00	4.82 to 5.12	CC[C@H](C)[C@H](NC(=O)[C@H](CC(C)C)NC(=O)[C@@H](NC(=O)[C@H](Cc1c[nH]c2ccccc12)NC(=O)[C@H](CCSC)NC(C)=O)[C@@H](C)CC)C(=O)N[C@@H](CO)C(=O)N[C@@H](Cc1ccccc1)C(=O)N[C@@H](Cc1c[nH]c2ccccc12)C(=O)NCC(=O)OC [compound 222] (HELM PEPTIDE1{[ac].M.W.I.L.I.S.F.W.G.[CO[*:1]]}$$$$V2.0)	98.2
0.7	5.00 to 6.00	> 5.12	CC[C@H](C)[C@H](NC(=O)[C@H](CC(C)C)NC(=O)[C@@H](NC(=O)[C@H](Cc1c[nH]c2ccccc12)NC(=O)[C@H](CCSC)NC(=O)[C@@H](N)Cc1c[nH]cn1)[C@@H](C)CC)C(=O)N[C@@H](CS)C(=O)N[C@@H](Cc1ccccc1)C(=O)N[C@@H](Cc1c[nH]c2ccccc12)C(=O)NCC(=O)O [compound 114] (H-HMWILICFWG-OH)	123
0.7	5.00 to 6.00	< 4.52	CC[C@H](C)[C@H](NC(=O)[C@@H]1CCCN1C(=O)[C@H](Cc1ccccc1)NC(=O)[C@H](Cc1c[nH]c2ccccc12)NC(=O)[C@H](CCSC)NC(=O)[C@H](CCCNC(=N)N)NC(=O)[C@H](CO)NC(=O)[C@@H](N)CCSC)C(=O)N[C@@H](CO)C(=O)N[C@@H](Cc1ccccc1)C(=O)N[C@@H](Cc1c[nH]c2ccccc12)C(=O)NCC(=O)O [compound 65] (H-MSRMWFPISFWG-OH)	105
–	< 4.52	> 5.12	CC[C@H](C)[C@H](NC(=O)[C@H](Cc1c[nH]c2ccccc12)NC(=O)[C@@H](N)CCSC)C(=O)N[C@@H](CC(C)C)C(=O)N[C@H](C(=O)N[C@H](C(=O)N[C@@H](Cc1ccccc1)C(=O)N[C@@H](Cc1c[nH]c2ccccc12)C(=O)NCC(=O)O)[C@@H](C)O)[C@@H](C)CC [compound 150] (H-MWILITFWG-OH)	99.8
1.85	> 6.40	> 5.12	CC[C@H](C)[C@H](NC(=O)[C@H](CC(C)C)NC(=O)[C@H](CC(C)C)NC(=O)[C@H](Cc1c[nH]c2ccccc12)NC(=O)[C@H](CCSC)NC(C)=O)C(=O)N[C@@H](CO)C(=O)N[C@@H](Cc1ccccc1)C(=O)N[C@@H](Cc1c[nH]c2ccccc12)C(=O)NCC(=O)O [compound 218] (Ac-MWLLISFWG-OH)	90.8
